Patent US7642059B2, “Single receptor assays for immunosuppressive drugs” (Roche Diagnostics Operations, Inc., priority 2005, dated 2010)

Key:
[1] = biological target: T1, FKBP25 (Homo sapiens, UniProt Q00688); conditions: FKBP25, rotamase assay; cited from earlier work
T1 sequence (Q00688 1-224): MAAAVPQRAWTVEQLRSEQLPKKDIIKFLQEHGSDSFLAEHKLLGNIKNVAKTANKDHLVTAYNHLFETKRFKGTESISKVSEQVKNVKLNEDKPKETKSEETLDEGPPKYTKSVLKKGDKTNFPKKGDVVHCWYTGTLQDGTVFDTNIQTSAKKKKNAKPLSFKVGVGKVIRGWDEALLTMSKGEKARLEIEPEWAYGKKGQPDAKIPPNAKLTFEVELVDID

[2] = biological target: FKBP14; conditions: cited from earlier work
[3] = biological target: T1, FKBP25; experiment: FKBP25 microparticle / rapamycin-aminodextran agglutination assay (cross-reactivity); format: binding
Procedure: A first working reagent (R1 reagent) was prepared by making 175 mM PIPES buffer, pH 7.4. To this was added rapamycin-aminodextran conjugate to give a concentration of 400 ng/mL. To this was also added polyacrylic acid to give a concentration of 1.3%.
A second working reagent (R2 reagent) was prepared as described in Example 12 and used at final concentration of 0.14% (w/v) in 50 mM MOPS buffer at pH 7.9.
A stock solution of rapamycin was made (100 μg/mL) in DMSO. Calibrators were prepared from the stock by making solution of 50, 100 and 200 ng/mL of rapamycin in 0.9% saline solution.
An assay was performed using a Hitachi 917 automated analyzer (Roche Diagnostics Corporation, Indianapolis) using a 35 μL sample volume, 180 μL of the first working reagent and 80 μL of the second working reagent (measured OD at 800 nm).
Known quantities of tacrolimus were then assayed as above. By comparing the observed reading from the rapamycin curve obtained to the actual amount of tacrolimus in the samples assayed, tacrolimus cross-reactivity was determined to be 7% in this assay. That is, a sample containing 1000 ng/ml tacrolimus gave a reading from the curve of 70 ng/ml rapamycin. Cross-reactivity is thus (70/1000)×100%=7%.

Row | cross-reactivity ([3]; read from rapamycin curve, Hitachi 917, OD at 800 nm) [%] | reading from the curve as rapamycin ([3]; sample containing 1000 ng/ml tacrolimus) [ng/mL] | Structure (SMILES) | Ki [1] [nM] | Kd [2] [nM] | fold lower Kd for tacrolimus than sirolimus [2]
1 | – | – | CO[C@H]1C[C@@H]2CC[C@@H](C)[C@@](O)(O2)C(=O)C(=O)N2CCCC[C@H]2C(=O)O[C@H]([C@H](C)C[C@@H]2CC[C@@H](O)[C@H](OC)C2)CC(=O)[C@H](C)/C=C(\C)[C@@H](O)[C@@H](OC)C(=O)[C@H](C)C[C@H](C)/C=C/C=C/C=C/1C [rapamycin] | 0.9 | – | –
2 | 7 | 70 | C=CC[C@@H]1/C=C(\C)C[C@H](C)C[C@H](OC)[C@H]2O[C@@](O)(C(=O)C(=O)N3CCCC[C@H]3C(=O)O[C@H](/C(C)=C/[C@@H]3CC[C@@H](O)[C@H](OC)C3)[C@H](C)[C@@H](O)CC1=O)[C@H](C)C[C@@H]2OC [tacrolimus] | 200 | 1.8 | about 20 fold
